Test results: patent publication US10227290B2, “Glycosphingolipids for use in modulating immune responses” (The Regents of the University of California, priority 2012, dated 2019)

Assays:
[1] = system: cyclophosphamide (CY) induced diabetes; conditions: NOD mouse model; Sharif et al.; cited from earlier work
[2] = system: NKT cell hybridomas; experiment: IL-2 production by NKT cell hybridomas cultured with BMDCs (ELISA); assay type: cell-based, mouse
Procedure: FIGS. 4A-4C illustrate that α-GalCerBf binds CD1d and activates murine NKT cells in vitro. FIG. 4A: NKT cell hybridomas (see Example 4) were stained with anti-CD3 antibodies, and empty mCD1d tetramers or CD1d tetramers were loaded with α-GalCerBf or KRN7000. Flow cytometry plots representative of three independent experiments are shown. FIG. 4B: Hybridomas were cultured with BMDCs (bone marrow-derived dendritic cells) pre-pulsed with LPS or LPS+α-GalCerBf in the presence of control Ig or anti-CD1d blocking antibodies. IL-2 secretion was measured in supernatants 16 hr later. Data are representative of three independent experiments. FIG. 4C: Liver mononuclear cells were cultured with splenocytes plus increasing amounts of α-GalCerBf in the presence or absence of anti-CD1d blocking antibodies. IFN-γ secretion was measured in supernatants on day 5. Data are representative of three independent experiments.
BMDCs and NKT hybridomas were cultured at a 3:1 hybridoma:BMDC ratio and the indicated doses of KRN7000 or α-GalCerBf in the presence of 1 μg/ml LPS. Supernatants were harvested after 24 hrs, and IL-2 production was measured by ELISA. […]
NKT hybridomas were stimulated in dose titration experiments. […] Supernatants were harvested after 24 hr, and IL-2 production was measured by ELISA. […] Supernatants were harvested after 16-18 hr and IL-2 production was measured by ELISA.

[3] = system: Peripheral blood mononuclear cells (PBMCs), CD3+Vα24+ NKT cells; experiment: In vitro expansion of CD3+Vα24+ NKT cells from human PBMCs; assay type: cell-based; conditions: 13 days; 0.1 μg/ml KRN7000, 1 μg/ml α-GalCerBf, 1 μg/ml ceramideBf
Procedure: FIGS. 6A and 6B illustrate that α-GalCerBf binds human CD1d and activates human NKT cells in vitro. FIG. 6A: PBMCs were cultured for 13 days with 0.1 μg/mlKRN7000, 1 μg/ml α-GalCerBf, or 1 μg/ml ceramideBf. Dot plots show CD3^+Vα24^+NKT cells pre- and post-expansion. The data shown are representative of at least two individual experiments performed with six individual donors. FIG. 6B: Human NKT cells were purified after two rounds of expansion with 1 μg/ml α-GalCerBf and restimulated with 10 μg/ml α-GalCerBf in the presence or absence of control Ig or anti-Cd1d blocking antibodies. IFN-γ secretion was measured in supernatants 40-48 hours later. Data are representative of two independent experiments.
The capability of α-GalCerBf to stimulate freshly isolated NKT cells was determined. A first experiment was performed to determine whether Vα24^+ cells could be expanded in vitro with α-GalCerBf as previously described for KRN7000 (see, e.g., Rogers et al., J. Immunol. Meth. 285:197-214 (2004)). Peripheral blood mononuclear cells (PBMCs) were cultured with 0.1 μg/ml KRN7000, 1 μg/ml α-GalCerBf, or 1 μg/ml ceramideBf for 13 days. The presence of CD3 Vα24^+ cells was then assessed by flow cytometry. At least two individual experiments performed with six individual donors. […] IFN-γ secretion was measured in supernatants 40-48 hours later.

In the case of `CCCCCCCCCCCCCCCCCCCCCCCCCC(=O)N[C@@H](CO[C@H]1O[C@H](CO)[C@H](O)[C@H](O)[C@H]1O)[C@H](O)[C@H](O)CCCCCCCCCCCCCC` [KRN7000], the “Effect on cyclophosphamide (CY) induced diabetes” value [1] is given as “prevents”, the “Sensitivity of hybridoma to KRN7000 relative to α-GalCerBf (IL-2)” value ([2]; hybridoma 1.2) is given as 30 fold and the “Sensitivity of hybridoma to KRN7000 relative to α-GalCerBf (IL-2)” value ([2]; hybridoma 1.4) is given as 80 fold. The “Expansion of a population of CD3+Vα24+ cells” value [3] was “showed an expansion”.
